Source: ChEMBL document CHEMBL1150281, “Oleanane-type triterpenes from the flowers and roots of Saussurea muliensis” (2008)

Tests used:
Assay type in all cases: functional
Staphylococcus aureus = assay: Antimicrobial activity against Staphylococcus aureus ATCC 25923
Escherichia coli = assay: Antimicrobial activity against Escherichia coli ATCC 25922
Bacillus cereus = assay: Antimicrobial activity against Bacillus cereus
Candida albicans = assay: Antimicrobial activity against Candida albicans

SMILES | MIC (Staphylococcus aureus) | MIC (Escherichia coli) | MIC (Bacillus cereus) | MIC (Candida albicans)
CC(=O)O[C@@H]1CC[C@]2(C)[C@H]3CC=C4[C@@H]5C[C@](O)(CO)[C@H](O)[C@H](OC(C)=O)[C@]5(C)CC[C@@]4(C)[C@]3(C)CC[C@H]2C1(C)C | > 50 µg/mL | > 50 µg/mL | > 50 µg/mL | > 50 µg/mL
CC1(C)[C@H](OC(=O)/C=C/c2ccc(O)c(O)c2)CC[C@]2(C)[C@H]3CC=C4[C@@H]5C[C@@](C)(C(=O)O)CC[C@]5(C)CC[C@@]4(C)[C@]3(C)CC[C@@H]12 | > 50 µg/mL | > 50 µg/mL | > 50 µg/mL | > 50 µg/mL
CCCCCCCCCCCCCCCC(=O)OC[C@@]1(O)C[C@H]2C3=CC[C@@H]4[C@@]5(C)CC[C@@H](OC(C)=O)C(C)(C)[C@@H]5CC[C@@]4(C)[C@]3(C)CC[C@@]2(C)[C@@H](OC(C)=O)[C@H]1O | > 50 µg/mL | > 50 µg/mL | > 50 µg/mL | > 50 µg/mL
CC1(C)[C@@H](O)CC[C@]2(C)[C@H]3CC=C4[C@@H]5C[C@@](C)(C(=O)O)C[C@H](O)[C@]5(C)CC[C@@]4(C)[C@]3(C)CC[C@@H]12 | > 50 µg/mL | > 50 µg/mL | > 50 µg/mL | > 50 µg/mL

Continued, values first:

MIC (Staphylococcus aureus) | MIC (Escherichia coli) | MIC (Bacillus cereus) | MIC (Candida albicans) | SMILES
> 50 µg/mL | > 50 µg/mL | > 50 µg/mL | > 50 µg/mL | CC1(C)[C@H](OC(=O)/C=C/c2ccc(O)cc2)CC[C@]2(C)[C@H]3CC=C4[C@@H]5C[C@@](C)(C(=O)O)CC[C@]5(C)CC[C@@]4(C)[C@]3(C)CC[C@@H]12
> 50 µg/mL | > 50 µg/mL | > 50 µg/mL | > 50 µg/mL | CO[C@]1(CO)C[C@H]2C3=CC[C@@H]4[C@@]5(C)CC[C@@H](OC(C)=O)C(C)(C)[C@@H]5CC[C@@]4(C)[C@]3(C)CC[C@@]2(C)[C@@H](OC(C)=O)[C@H]1O
